Reference: the NIST ThermoML archive (doi:10.1016/j.jct.2007.07.002)

Conditions: Gas, double Helmholtz acoustic resonator

O=C=O [carbon dioxide]
Conditions | kinematic viscosity [m2/s] | speed of sound [m/s]
220 K, 195.46 kPa | 2.37e-06 | 231.7
220 K, 226.71 kPa | 2e-06 | 231.05
220 K, 254.44 kPa | 1.79e-06 | 230.53
220 K, 288.21 kPa | 1.56e-06 | 229.81
220 K, 324.47 kPa | 1.37e-06 | 229.07
220 K, 362.71 kPa | 1.22e-06 | 228.29
220 K, 393.15 kPa | 1.12e-06 | 227.64
220 K, 425.51 kPa | 1.03e-06 | 226.95
220 K, 449.74 kPa | 9.7e-07 | 226.42
220 K, 479.78 kPa | 9.02e-07 | 225.76
235 K, 224.78 kPa | 2.31e-06 | 238.87
235 K, 359.42 kPa | 1.42e-06 | 236.69
235 K, 452.88 kPa | 1.11e-06 | 235.12
235 K, 545.18 kPa | 9.13e-07 | 233.52
235 K, 638.46 kPa | 7.66e-07 | 231.87
235 K, 723.88 kPa | 6.71e-07 | 230.31
235 K, 803.31 kPa | 5.95e-07 | 228.81
250 K, 274.2 kPa | 2.15e-06 | 245.57
250 K, 372.33 kPa | 1.57e-06 | 244.25
250 K, 491.25 kPa | 1.17e-06 | 242.62
250 K, 595.84 kPa | 9.53e-07 | 241.15
250 K, 702.28 kPa | 7.98e-07 | 239.62
250 K, 818.89 kPa | 6.75e-07 | 237.9
250 K, 953.03 kPa | 5.71e-07 | 235.87
250 K, 1060.2 kPa | 5.07e-07 | 234.18
250 K, 1177.6 kPa | 4.5e-07 | 232.28
250 K, 1291.6 kPa | 4.03e-07 | 230.37
250 K, 1438.2 kPa | 3.54e-07 | 227.81
270 K, 196.61 kPa | 3.5e-06 | 255.77
270 K, 354.95 kPa | 1.95e-06 | 254.13
270 K, 526.01 kPa | 1.29e-06 | 252.3
270 K, 705.02 kPa | 9.47e-07 | 250.33
270 K, 898.25 kPa | 7.28e-07 | 248.16
270 K, 1076.5 kPa | 5.99e-07 | 246.1
270 K, 1287.1 kPa | 4.91e-07 | 243.58
270 K, 1446.7 kPa | 4.31e-07 | 241.62
270 K, 1630 kPa | 3.76e-07 | 239.29
270 K, 1846 kPa | 3.26e-07 | 236.43
270 K, 2079.6 kPa | 2.84e-07 | 233.19
270 K, 2316.1 kPa | 2.49e-07 | 229.71
270 K, 2509.6 kPa | 2.26e-07 | 226.69
285 K, 371.48 kPa | 2.07e-06 | 260.81
285 K, 575.25 kPa | 1.31e-06 | 258.96
285 K, 787.74 kPa | 9.44e-07 | 257
285 K, 1013 kPa | 7.22e-07 | 254.87
285 K, 1228.5 kPa | 5.87e-07 | 252.79
285 K, 1500.4 kPa | 4.72e-07 | 250.09
285 K, 1707.2 kPa | 4.09e-07 | 247.98
285 K, 1947.2 kPa | 3.52e-07 | 245.46
285 K, 2221.2 kPa | 3.03e-07 | 242.48
285 K, 2559.7 kPa | 2.58e-07 | 238.62
285 K, 2841.9 kPa | 2.27e-07 | 235.23
285 K, 3057.8 kPa | 2.06e-07 | 232.51
300 K, 313.43 kPa | 2.72e-06 | 267.83
300 K, 531.89 kPa | 1.58e-06 | 266.16
300 K, 748.54 kPa | 1.11e-06 | 264.48
300 K, 993.26 kPa | 8.26e-07 | 262.55
300 K, 1237 kPa | 6.54e-07 | 260.6
300 K, 1526.1 kPa | 5.22e-07 | 258.23
300 K, 1747.8 kPa | 4.5e-07 | 256.38
300 K, 1991.5 kPa | 3.9e-07 | 254.3
300 K, 2272.2 kPa | 3.37e-07 | 251.86
300 K, 2577.9 kPa | 2.92e-07 | 249.12
300 K, 2893.9 kPa | 2.57e-07 | 246.21
300 K, 3145.8 kPa | 2.33e-07 | 243.81
304.77 K, 317.81 kPa | 2.78e-06 | 269.84
304.77 K, 527.05 kPa | 1.65e-06 | 268.3
304.77 K, 745.25 kPa | 1.15e-06 | 266.69
304.77 K, 979.77 kPa | 8.66e-07 | 264.94
304.77 K, 1201.7 kPa | 6.98e-07 | 263.26
304.77 K, 1478.9 kPa | 5.59e-07 | 261.12
304.77 K, 1699.4 kPa | 4.82e-07 | 259.4
304.77 K, 1950 kPa | 4.14e-07 | 257.4
304.77 K, 2235.2 kPa | 3.57e-07 | 255.09
304.77 K, 2552.7 kPa | 3.07e-07 | 252.45
304.77 K, 2881 kPa | 2.69e-07 | 249.66
304.77 K, 3135.9 kPa | 2.44e-07 | 247.43
310 K, 342.08 kPa | 2.66e-06 | 271.86
310 K, 552.05 kPa | 1.63e-06 | 270.4
310 K, 773.76 kPa | 1.15e-06 | 268.86
310 K, 1018 kPa | 8.63e-07 | 267.13
310 K, 1259.3 kPa | 6.9e-07 | 265.4
310 K, 1549 kPa | 5.53e-07 | 263.3
310 K, 1786.6 kPa | 4.75e-07 | 261.55
310 K, 2055.6 kPa | 4.08e-07 | 259.54
310 K, 2363 kPa | 3.49e-07 | 257.19
310 K, 2708.8 kPa | 3e-07 | 254.5
310 K, 3078 kPa | 2.6e-07 | 251.56
330 K, 201.27 kPa | 5.17e-06 | 280.89
330 K, 402.42 kPa | 2.55e-06 | 279.73
330 K, 626.86 kPa | 1.62e-06 | 278.46
330 K, 846.53 kPa | 1.19e-06 | 277.21
330 K, 1059.3 kPa | 9.44e-07 | 276
330 K, 1333 kPa | 7.43e-07 | 274.43
330 K, 1559.3 kPa | 6.3e-07 | 273.12
330 K, 1813.1 kPa | 5.37e-07 | 271.64
330 K, 2103.2 kPa | 4.59e-07 | 269.94
330 K, 2423.4 kPa | 3.94e-07 | 268.06
330 K, 2778.7 kPa | 3.4e-07 | 265.94
330 K, 3067.6 kPa | 3.06e-07 | 264.21
350 K, 234.16 kPa | 4.97e-06 | 288.49
350 K, 440.84 kPa | 2.61e-06 | 287.51
350 K, 660.1 kPa | 1.73e-06 | 286.5
350 K, 905.02 kPa | 1.25e-06 | 285.36
350 K, 1143.5 kPa | 9.86e-07 | 284.25
350 K, 1347.8 kPa | 8.31e-07 | 283.31
350 K, 1584.4 kPa | 7.03e-07 | 282.2
350 K, 1873 kPa | 5.9e-07 | 280.86
350 K, 2228.5 kPa | 4.92e-07 | 279.21
350 K, 2447.3 kPa | 4.45e-07 | 278.19
350 K, 2827.2 kPa | 3.82e-07 | 276.43
350 K, 3133.8 kPa | 3.42e-07 | 275.01
370 K, 335.49 kPa | 3.82e-06 | 295.63
370 K, 537.7 kPa | 2.37e-06 | 294.86
370 K, 749.31 kPa | 1.7e-06 | 294.05
370 K, 964.83 kPa | 1.31e-06 | 293.24
370 K, 1228.5 kPa | 1.03e-06 | 292.24
370 K, 1449.3 kPa | 8.66e-07 | 291.41
370 K, 1714.1 kPa | 7.29e-07 | 290.42
370 K, 2019 kPa | 6.15e-07 | 289.27
370 K, 2382.7 kPa | 5.18e-07 | 287.93
370 K, 2771.7 kPa | 4.42e-07 | 286.5
370 K, 3095.9 kPa | 3.93e-07 | 285.31
